Assay results: US20200230205A1, “COMPOSITIONS AND METHODS FOR TREATING MYELIN DISORDERS” (CASE WESTERN RESERVE UNIVERSITY, priority 2017, published 2020)

How the values were obtained:
[1] = test system: oligodendrocyte progenitor cells (OPCs); experiment: Ki-67 proliferation and TUNEL apoptosis of OPCs on aggrecan/laminin; type: cell-based, mouse
Method: To assess proliferation, OPCs were plated on 24-well coverslips that were precoated with PLL, 1 μg/mL laminin, and 2 μg/mL aggrecan. OPCs were treated with vehicle, 2.5 μM ISP or SISP immediately upon plating for 2 days at 37° C. Coverslips were fixed and stained using the same method described in the immunocytochemistry section with Ki-67 (550609, BD Pharmingen, 1:500) and O4 (1:10). Coverslips were imaged and counted. To assess apoptosis, OPCs were cultured in the same fashion and incubated with vehicle or 1 μg/mL LPC for 2 hours at 2 days following vehicle, 2.5 μM ISP or SISP incubation. Coverslips were then fixed with PFA and methanol then stained using APO-BrdU TUNEL assay kit (A23210, ThermoFisher) and guidelines with an O/N incubation of the primary antibody at RT. Coverslips were additionally costained with DAPI (D9542, Sigma, 1:10,000) then imaged and counted.

[2] = test system: organotypic cerebellar slice cultures; experiment: LPC-induced demyelination in mouse cerebellar slice cultures; type: cell-based
Excerpt: We carried out the cerebellar slice culture method as described previously (Zhang, H., et al. Central nervous system remyelination in culture—A tool for multiple sclerosis research. Experimental Neurology 230, 138-148 (2011)). Briefly, 300 μm-thick cerebellar slices were cut from P10-12 mouse cerebellum using a Leica vibrating microtome (Leica, VT1000S) and cultured in medium containing 50% basal medium eagle medium, 25% Heat-inactivated horse serum, 25% Hank's solution, 2.5% glucose, 1% glutamine and penicillin-streptomycin. After 4 days in vitro (DIV), 0.5 mg/ml LPC were added for 17-18h to induce demyelination. Slices were then incubated with 2.5 μM ISP for 8 days. For GM6001 experiments, 25 μM GM6001 (Tocris) and/or 2.5 μM ISP or SISP was incubated for 9 days. Remyelination was examined by semi-quantitative Western blot of MBP and immunofluorescence stain of MBP and NeuF200.
Slices were fixed with 4% PFA, delipidated, and washed three times in PBS, blocked in PBS containing 0.1% Triton X-100 and 5% normal goat serum and incubated with anti-MBP (SMI-99P, Covance, 1:300), and anti-NeuF200 (N4142, Sigma, 1:250) antibodies overnight at 4° C. The slices were then washed in PBS and incubated in Alexa Fluor-conjugated secondary antibodies (1:500, invitrogen) for 2h. Slices were mounted in Vectashield mounting medium with DAPI (Vector Laboratories) and analyzed using Leica DFC500 fluorescence microscope.

[3] = test system: oligodendrocyte progenitor cells (OPCs); experiment: OPC maturation and process outgrowth on CSPGs (MBP footprint); type: cell-based, mouse
Method: OPCs were prepared from newborn C57BL/6 mice as described previously (Luo, F., et al. The Activators of Cyclin-Dependent Kinase 5 p35 and p39 Are Essential for Oligodendrocyte Maturation, Process Formation, and Myelination. J. Neurosci. 36, 3024-3037 (2016).). Cell culture plates were pre-coated with IgM (10 jpg/ml, Millipore) in 50 mM Tris-HCl and followed primary mouse antibody A2B5. Dissociated cells were incubated in the pre-coated culture dishes for 30 min at 37° C. and then non-adherent cells were gently removed. A2B5+ OPCs were released by 0.05% trypsin in DMEM at a purify of ˜96%. Purified OPC cells were expanded in DMEM/F12 medium supplemented with N2, 20 ng/ml PDGF, 20 ng/mlFGF, 5 ng/mlNT-3, 10 ng/ml CNTF, Glutamine (200 mM).
For MMP-2/04 staining, OPCs were plated onto 24-well coverslips that were precoated with PLL, 1 μg/mL laminin, and 2 μg/mL aggrecan and incubated with vehicle or 2.5 μM ISP for 2 days at 37° C. Cultured OPC or OL cells were fixed in 4% PFA and followed blocking in PBST solution (10% normal goat serum and 0.2% Triton-X100 in PBS). Diluted primary antibodies were incubated with samples overnight at 4° C. and followed by appropriate secondary antibody goat anti-mouse or anti-rabbit IgM or IgG conjugated with Alexa Fluor 488 or 594 (1:500, Invitrogen). […]

[4] = test system: oligodendrocyte progenitor cells (OPCs); experiment: CSPG gradient crossing (spot) assay, OPC migration; type: cell-based, mouse
Method: CSPG gradients were prepared as described previously (Tom, V. J., et al. Studies on the Development and Behavior of the Dystrophic Growth Cone, the Hallmark of Regeneration Failure, in an In vitro Model of the Glial Scar and after Spinal Cord Injury.). 24-well glass coverslip were coated with poly-L-lysine and nitrocellulose, and a mixture of 700 μg/mL aggrecan (A1960 Sigma) and 10 μg/mL laminin (11243217001 Sigma) spotted on the coated coverslip. After drying, coated coverslips were then incubated with laminin at 37° C. for 3h. Purified OPCs were plated at a density of 10,000/coverslip and cultured in DMEM/F12 medium containing with N2, PDGF (20 ng/ml), FGF (20 ng/ml), NT-3 (5 ng/ml), CNTF (O1 ng/ml), Glutamine (200 mM). Coverslips were stained with CS-56 (C8035, Sigma, 1:500) and O4 antibodies (Hybridoma Core Cleveland Clinic, 1:10). O4-positive cells crossing the aggrecan border were counted for each spot. For CSPG gradient quantification, 1×10^6 OPCs were plated per well on PLL, 1 μg/mL laminin, and 2 μg/mL aggrecan coated 6-well plates. OPCs treated with vehicle, 2.5 μM ISP, or 2.5 μM SISP for 2 days at 37° C. CM was harvested and incubated with freshly made spots. Spots were incubated with CM for 2 days at 37° C. then stained with CS-56 and laminin (L9393, Sigma, 1:1000) antibodies and consistently imaged. Using ImageJ software (NIH), pixel intensities of the CS-56 or laminin spot rims were quantified using the same ROI. For cultured spinal cord explant, the spinal cords of cervical and thoracic of P1 mouse pups were chopped into 1-2 mm tissue pieces and transferred to the coverslip. Explants were cultured in DMEM/F12 medium with 15% FBS (Hyclone), O1 ng/ml PDGF (Sigma) and N2 supplement (Invitrogen). For ISP treatment, 2.5 uM ISP was added to the media at the time of plating. 25 μM GM6001 (2983, Tocris), 100 nM MMP-2 inhibitor (444244, Calbiochem), and/or 2.5 μM ISP or SISP was used.

| Compound | apoptosis (TUNEL) following LPC treatment ([1]; 100 nM OA-Hy with ISP, LPC 1 μg/mL 2 hours, vs LPC-ISP) | TUNEL+ cells/total cells ([1]; 100 nM OA-Hy, 2 days in vitro, no LPC) | colocalization of MBP and neurofilament+ axons ([2]; 25 μM GM6001 or 100 nM OA-Hy in conjunction with 2.5 μM ISP, 9 days) | MBP footprint ([3]; 100 nM OA-Hy, OPCs on aggrecan/laminin, vs ISP treatment alone) | OPC entry into the CSPG-rich area ([4]; 25 μM GM6001 or 100 nM OA-Hy, even in the presence of ISP) | OPC proliferation (Ki67) ([1]; 2.5 μM peptide, 2 div, laminin 1 and aggrecan 2 μg/mL, vs control) | OPC death (TUNEL) after LPC challenge ([1]; LPC 1 μg/mL, 2 hours, 2.5 μM ISP) | percentage of apoptotic cells (TUNEL) ([1]; OPCs on low laminin and aggrecan, 2.5 μM ISP) | MBP-neurofilament colocalization ([2]; 2.5 μM ISP for 9 days after LPC, vs control) | remyelination (MBP and NF200 colocalization) ([2]; 2.5 μM ISP, 8 div after LPC, vs vehicle) | aggrecan (Cat301) expression vs vehicle ([2]; 4 div) | aggrecan (Cat301) presence ([2]; 8 div) | CSPG expression vs vehicle ([2]; 14 div) | remyelination (MBP and NF200 colocalization, western blot) ([2]; ISP, 14 div after LPC) | process outgrowth and maturation of OPCs grown on CSPGs (MBP+ footprints) ([3]; ISP vs vehicle on CSPGs) | O4+ OPCs crossing the CSPG barrier ([4]; purified OPCs, 2.5 μM ISP vs control) |
| --- | --- | --- | --- | --- | --- | --- | --- | --- | --- | --- | --- | --- | --- | --- | --- | --- |
| CCCCCCCC/C=C\CCCCCCCC(=O)NO [OA-Hy, reference compound] | increased apoptosis | did not significantly increase | decreased | decreased MBP footprint significantly | effectively halted OPC entry | – | – | – | – | – | – | – | – | – | – | – |
| GRKKRRQRRRCDMAEHMERLKANDSLKLSQEYESI [ISP] | – | – | – | – | – | no significant differences | decreased OPC death | decreased the percentage of apoptotic cells | significantly increased | increased remyelination | similar | decrease in aggrecan presence | greater CSPG decrease | abundant remyelinated axons | largely rescued | significantly induced greater O4+ OPC migration |
